As usually defined, the Kd is the free concentration of one partner at which half of the binding sites on the other are occupied at equilibrium, for simple one-to-one binding.

In this test the target is T1, PsPto-PscA-LBD (Pseudomonas syringae group genomosp. 3, UniProt Q882Z2).
T1 construct: host E. coli BL21(DE3)
T1 sequence (Q882Z2 30-278): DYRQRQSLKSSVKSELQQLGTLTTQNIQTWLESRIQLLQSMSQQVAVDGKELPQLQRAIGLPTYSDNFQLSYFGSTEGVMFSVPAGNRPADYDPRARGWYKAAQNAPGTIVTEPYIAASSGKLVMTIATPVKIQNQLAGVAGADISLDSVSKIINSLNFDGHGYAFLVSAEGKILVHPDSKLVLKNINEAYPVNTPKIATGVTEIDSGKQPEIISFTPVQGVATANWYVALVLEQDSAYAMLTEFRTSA
Description: isothermal titration calorimetry. The format is binding. Conditions: read-out: Mean KD (μM) ± SEM. From the text: isothermal titration calorimetry on PsPto-PscA-LBD
In general terms: ITC needs no label: the signal is the heat of the interaction.
For `N[C@H](CC(=O)O)C(=O)O` [D-Asp], the Kd stood at 1.2 ± 0.1 µM.

For `N[C@@H](CC(=O)O)C(=O)O` [L-Asp], the Kd was found to be 1.2 ± 0.1 µM.

For `N[C@@H](CCC(=O)O)C(=O)O` [L-Glu], the Kd worked out at 3.4 ± 0.1 µM.

Values taken from article PMC6775455, “Chemoperception of Specific Amino Acids Controls Phytopathogenicity in Pseudomonas syringae pv. tomato” (mBio, 2019).
